Data set [1] concerns Helicobacter pylori. Kind of data set: Agar dilution test (inhibition of growth in vitro on agar plates). The data set is classed as cell-based. The note with it: 96 h, Columbia agar (Oxoid), growth period of 4 days, read-out: approx. MIC50. The source says:
Agar Dilution Test (Determination of the Inhibition of Growth In Vitro on Agar Plates)
The compounds of the formula I were investigated for their activity against Helicobacter pylori in accordance with the methodology described by Tomoyuki Iwahi et al. (Antimicrobial Agents and Chemotherapy, 1991, 490-496) using Columbia agar (Oxoid) over a growth period of 4 days.
(In general: In agar dilution the substance is mixed into plates at graded concentrations.)

The subject of data set [2] is Helicobacter pylori. Put plainly: Inhibition of growth in vitro in liquid culture (NanoOrange fluorescence). The class given is cell-based. The note with it: liquid culture BHI/6% FCS medium, 24 hours incubation at 37° C., microaerobic, 1% DMSO. The source says: Determination of the Inhibition of Growth In Vitro in Liquid Culture
The principle of the technique is based on the detection of the multiplication of, for example, Helicobacter pylori in liquid culture using BHI/6% FCS medium. The method ensures linear fluorescence increase in the range from 3×10^6 to 3×10^8 cells.
The bacterial culture was distributed with an initial density of 1-3×10^6 microbes/ml in a 96-well MTP in […]. The test substances in a concentration of […] in a final concentration of 1% DMSO were added to these minicultures. These MTPs were then incubated under microaerobic conditions (Anaerokult, Merck) and with shaking at 37° C. for 24 hours. Following the 24-hour incubation, the minicultures were transferred to filter MTPs and washed twice with isotonic buffer (filtered off with suction, taken up, shaken) and finally were taken up in double-distilled water and shaken, and an aliquot was transferred to a new MTP. This aliquot was admixed with the fluorescent dye NanoOrange (Molecular Probes) in accordance with the manufacturer's instructions. Development of protein detection took place at 90° C. in a pressure-secured sandwich technique. After the plates had cooled, the fluorescence was measured on a plate reader at 549 nm. […] This calculation was made using origin, sigmoidal curve adaptation by means of the ‘logistic’ algorithm.

Data set [3] has as its system Helicobacter pylori. Put plainly: Helicobacter pylori eradication rate in vivo (urease test on antrum tissue). The note with it: infected gerbils; 50 mg/kg by tube, 3 × daily for 4 days; urease test four weeks after last treatment. On the procedure:
Determination of the Helicobacter pylori Eradication Rate In Vivo
Gerbils were infected on days 1, 3, and 5 with a suspension containing 10^8-10^9 Helicobacter pylori bacteria per animal. […] Beginning on day 36, the gerbils were treated on four successive days—three times daily at 07.30, 11.30, and 15.00 hours—with a placebo or the test substance, using a tube. Four weeks after the last treatment, the gerbils were sacrificed using CO2. A tissue sample of the antrum was introduced into the urease test solution and incubated at 37° C. for 24 hours. Changes in color of the solution from yellow to violet, which resulted from the increase in pH caused by the formation of NH3 from the urease, were detected. The eradication rate was calculated as the percentage of animals whose stomach tissue sample gave a negative urease test.
Conditions Under which the Animals were Kept:
Groups of 5-10 gerbils per cage (type IV Macrolon cage) were kept at an ambient temperature of 23±2° C. and a relative humidity of 50±10%. They were fed ad libitum with NAFAG feed No. 9439 for rats and mice (NAFAG AG, CH-2900, Gossau, Switzerland) and had free access to mains water during the experiment.
The substances administered are referenced in table C below using numbers which correspond to the numbers of the compounds in the examples.

The values that follow come from patent US20040158066A1, “Novel pyridylmethylaminopyrimidines” (priority 2001, published 2004).

Each structure is given as a SMILES string. In brackets after ≈: the same amount, converted by molar mass.

In general, melting point refers to the temperature of the solid-liquid transition. In general, MIC50 refers to an inhibitory concentration at the 50% level, which refers to growth in some studies and to a panel of isolates in others. For orientation: IC50 means the concentration at which inhibition is half-maximal. A lower IC50 goes with higher potency.

Regarding `Cc1nc(C)c(Cl)c(NCc2ccc(Oc3ccc4ncc([N+](=O)[O-])n4n3)cn2)n1.Cl.Cl`, the melting point is 280 to 281 °C.
Same read-out and setting: the figure for `Cc1nc(C)c(Cl)c(NCc2ccc(Oc3ccc4ncc([N+](=O)[O-])n4n3)cn2)n1.O=S(=O)(O)O` is 233 to 234 °C.
`COc1c(Oc2ccc3ncc([N+](=O)[O-])n3n2)cnc(CNc2nc(C)nc(C)c2Cl)c1C` [Compound 1, (5-Chloro-2,6-dimethylpyrimidin-4-yl)[4-methoxy-3-methyl-5-(3-nitroimidazo[1,2-b]pyridazin-6-yloxy)pyridin-2-ylmethyl]amine]: the melting point is 229.5 to 231.5 °C. For the same compound, the MIC50 with Helicobacter pylori [1] was ~0.1 µg/mL (≈ 0.212 µM). For the same compound, in the data set on Helicobacter pylori [2], the IC50 worked out at 12 nM.
Compound `COc1c(OCCn2c([N+](=O)[O-])cnc2C)cnc(CNc2nc(C)nc(C)c2Cl)c1C` [Compound 2, (5-Chloro-2,6-dimethylpyrimidin-4-yl){4-methoxy-3-methyl-5-[2-(2-methyl-5-nitroimidazol-1-yl)ethoxy]pyridin-2-ylmethyl}amine] yielded a melting point of 182.5 to 184 °C. Besides, the MIC50 in the data set with Helicobacter pylori [1] was ~0.1 µg/mL (≈ 0.216 µM). The compound also showed an IC50 with Helicobacter pylori [2] of 64 nM.
In turn, `Cc1nc(C)c(Cl)c(NCc2ccc(Oc3ccc4ncc([N+](=O)[O-])n4n3)cn2)n1` [Compound 3, (5-Chloro-2,6dimethylpyrimidin-4-yl){5-(3-nitroimidazo[1,2-b]pyridazin-6-yloxy)pyridin-2-ylmethyl}amine] gave a melting point of 194 to 198 °C. For the same compound, the MIC50 with Helicobacter pylori [1] was ~0.1 µg/mL (≈ 0.234 µM). The IC50 with Helicobacter pylori [2] stood at 35 nM. This compound returned an Eradication rate with Helicobacter pylori [3] of 100%.
In turn, `Cc1nc(C)c(Cl)c(NCc2ccc(OCCn3c([N+](=O)[O-])cnc3C)cn2)n1` [Compound 4, (5-Chloro-2,6-dimethylpyrimidin-4-yl){5-[2-(2-methyl-5-nitroimidazol-1-yl)ethoxy]pyridine-2-ylmethyl}amine] returned a melting point of 181.5 to 183.5 °C. For the same compound, the MIC50 in the data set on Helicobacter pylori [1] is ~0.1 µg/mL (≈ 0.239 µM). In addition, in the data set on Helicobacter pylori [2], 40 nM corresponded to half-maximal inhibition (IC50).
`Cc1nc(C)c(Cl)c(NCc2ccc(Oc3ccc4ncc([N+](=O)[O-])n4n3)c(Cl)n2)n1` [Compound 7, (5-Chloro-2,6-dimethylpyrimidin-4-yl)-[6-chloro-5-(3-nitroimidazo[1,2-b]pyridazin-6-yloxy)pyridin-2-ylmethyl]amine] had a melting point of 184 to 186 °C.
As for `Cc1nc(C)c(Cl)c(NCc2ccc(OCCn3c([N+](=O)[O-])cnc3C)c(Cl)n2)n1` [Compound 8, (5-Chloro-2,6-dimethylpyrimidin-4-yl)-{6-chloro-5-[2-(2-methyl-5-nitroimidazol-1-yl)ethoxy]pyridin-2-ylmethyl}amine], the melting point was in the range of 206 to 208 °C.
Still for that read-out and setting: under `Cc1nc(C)c(Cl)c(CNCc2ccc(Oc3ccc4ncc([N+](=O)[O-])n4n3)cn2)n1` [Compound 9, (5-Chloro-2,6-dimethylpyrimidin-4-yl)methyl-[5-(3-nitroimidazo[1,2-b]pyridazin-6-yloxy)pyridin-2-ylmethyl]amine] stands 183 to 184 °C.
